From PubChem BioAssay AID2060903 (Molecular Pharmacology Branch, DTP, NCI, 2025)

Test system: 377384-186-R-J1-PDC complex spheroid viability
Experiment: Anticancer human tumor 377384-186-R-J1-PDC patient-derived pancreatic carcinoma cell line growth inhibition [RAS]
Details: for IC50: curve of first compound; for viability, T/C: stronger effect = lower value
Text: RAS pathway inhibitors in Combinations in Complex Spheroids
A high-throughput screen of multi-cell type tumor spheroids was designed to identify active combinations of RAS pathway inhibitors and targeted small molecules. Complex spheroids include a stromal component modeled by human endothelial cells (HUVEC) and fibroblasts modeled by human mesenchymal stem cells (MSCs). The concentration ranges selected for each drug and investigational agent were based upon clinically achievable concentrations if the clinical Cmax of the agent was known.
Compounds. The drugs and investigational agents: abemaciclib (NSC768073), cobimetinib (NSC768068), divarasib (GDC6063, NSC841802), docetaxel (NSC628503), GDC-1971 (RLY-1971, NSC841576), gemcitabine (NSC613327), inavolisib (NSC800729), ipatasertib (NSC767898), KB-0742 (NSC834161), MRTX-1133 (NSC836407), osimertinib (NSC779217), RMC-4630 (NSC839698), RMC-6236 (NSC851965), RMC-6291 (NSC852671), Ro-3306 (NSC812927), sapanisertib (NSC764658), SN-38 (NSC673596), staurosporine (NSC755774), SY5609 (NSC837396), and tovorafenib (DAY101, NSC766906), were obtained from the National Cancer Institute (NCI) Developmental Therapeutics Program Chemical Repository. The FDA-approved anticancer drug set is available from the NCI Developmental Therapeutics Program. […] The stock solutions were prepared in dimethyl sulfoxide (DMSO, Sigma-Aldrich, St. Louis, MO, cat. D2650) at 800-fold the tested concentration and stored at -70 degrees C prior to their use. All drugs and investigational agents were tested over a range starting from a high concentration at or near the clinical Cmax and decreasing in half-log increments. If the clinical Cmax for an agent had not been determined, the highest concentration tested was 10 microM.
Cell Culture. All cells were maintained in an incubator at 37 degrees C and 5% CO2 with 95% humidity. The PDC lines were cultured according to standard operating procedures established by the NCI PDMR. All PDCs were thawed and cultured in Matrigel-coated flasks prepared with a working solution of 1X Ham's F-12 nutrient mix, without supplementation (Invitrogen, Waltham, MA, cat. 11765054), 100 U/mL penicillin-streptomycin (Invitrogen, cat. 15140122), and 2.5% Matrigel (Corning Inc., Corning, NY, cat. 354248) for the first three passages. The 362531-283-R-J2-PDC and 782815-120-R-J1-PDC lines were cultured in 6C/Colon 1B media, which includes advanced DMEM/F-12 (Thermo Fisher Scientific, cat. 12634028), 10 mM HEPES (Thermo Fisher Scientific, cat. 15630080), 1X GlutaMAX supplement (Thermo Fisher Scientific, cat. 35050061), 0.1 mg/mL primocin (InvivoGen, San Diego, CA, cat. ant-pm-2), 10% defined fetal bovine serum, heat inactivated (HyClone Laboratories Inc., Logan, UT, cat. SH30070.03HI), 50% L-WRN conditioned media (ATCC, cat. CRL-3276), 1.25 mM N-Acetyl-L-cysteine (Sigma-Aldrich, cat. A9165), 10 mM nicotinamide (Sigma-Aldrich, cat. N0636), 1X B-27 supplement (Thermo Fisher Scientific, cat. 17504044), 1X N-2 supplement (Thermo Fisher Scientific, cat. 17502048), 50 ng/mL human EGF (Thermo Fisher Scientific, cat. PHG0311), and 10 microM Y-27632 dihydrochloride (Tocris Bioscience, cat. 1254). The K12877-001-R-J1-PDC line was cultured in 6I media, which includes all 6C/Colon 1B media plus 10 ng/mL human FGF-10 (PeproTech, cat. 100-26), 1 ng/mL human FGF-2 (PeproTech, cat. 100-18B), 1 µM prostaglandin E2 (Tocris Bioscience, cat. 2296), […] hydrocortisone (Sigma-Aldrich, cat. H4001), and […] bovine insulin (Sigma-Aldrich, cat. I6634). The K86415-001-R-J1-PDC line was cultured in 6D media, which includes all 6C/Colon 1B media components minus the L-WRN conditioned media. The 485176-168-R4-J1-PDC was cultured in PANC media, which includes all 6C/Colon 1B media plus 100 ng/mL human FGF-10 (PeproTech, cat. 100-26), 500 nM SB-431542 (Selleckchem, cat. S1067), and 10 nM gastrin (Tocris Bioscience, cat. 3006). […]

[1] = second compound 0.0316 µM, first compound 0.0316 µM
[2] = second compound 0.0316 µM, first compound 0.1 µM
[3] = second compound 0.0316 µM, first compound 0.316 µM
[4] = second compound 0.0316 µM, first compound 1 µM
[5] = second compound 0.0316 µM, first compound 3.16 µM
[6] = second compound 0.0316 µM, first compound 10 µM
[7] = second compound 0.1 µM, first compound 0.0316 µM
[8] = second compound 0.1 µM, first compound 0.1 µM
[9] = second compound 0.1 µM, first compound 0.316 µM
[10] = second compound 0.1 µM, first compound 1 µM
[11] = second compound 0.1 µM, first compound 3.16 µM
[12] = second compound 0.1 µM, first compound 10 µM
[13] = second compound 0.316 µM, first compound 0.0316 µM
[14] = second compound 0.316 µM, first compound 0.1 µM
[15] = second compound 0.316 µM, first compound 0.316 µM
[16] = second compound 0.316 µM, first compound 1 µM
[17] = second compound 0.316 µM, first compound 3.16 µM
[18] = second compound 0.316 µM, first compound 10 µM
[19] = second compound 1 µM, first compound 0.0316 µM
[20] = second compound 1 µM, first compound 0.1 µM
[21] = second compound 1 µM, first compound 0.316 µM
[22] = second compound 1 µM, first compound 1 µM
[23] = second compound 1 µM, first compound 3.16 µM
[24] = second compound 1 µM, first compound 10 µM
[25] = second compound 3.16 µM, first compound 0.0316 µM
[26] = second compound 3.16 µM, first compound 0.1 µM
[27] = second compound 3.16 µM, first compound 0.316 µM
[28] = second compound 3.16 µM, first compound 1 µM
[29] = second compound 3.16 µM, first compound 3.16 µM
[30] = second compound 3.16 µM, first compound 10 µM
[31] = second compound 10 µM, first compound 0.0316 µM
[32] = second compound 10 µM, first compound 0.1 µM
[33] = second compound 10 µM, first compound 0.316 µM
[34] = second compound 10 µM, first compound 1 µM
[35] = second compound 10 µM, first compound 3.16 µM
[36] = second compound 10 µM, first compound 10 µM
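Also: spheroids exposed to compounds for seven days before readout.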

Compound: CC1(O)CCCC1n1c(=O)c(C(F)F)cc2cnc(NC3CCN(S(C)(=O)=O)CC3)nc21 (stereo unspecified) + C#Cc1c(F)ccc2cc(O)cc(-c3ncc4c(N5CC6CCC(C5)N6)nc(OCC56CCCN5CC(F)C6)nc4c3F)c12
- IC50 (second compound 0.0316 µM): < 31.6 nM
- IC50 (second compound 0.1 µM): < 31.6 nM
- IC50 (second compound 0.316 µM): < 31.6 nM
- IC50 (second compound 1 µM): < 31.6 nM
- IC50 (second compound 3.16 µM): < 31.6 nM
- IC50 (second compound 10 µM): < 31.6 nM
- viability, T/C [1]: 15.5%
- viability, T/C [2]: 12.7%
- viability, T/C [3]: 10%
- viability, T/C [4]: 11.7%
- viability, T/C [5]: 16%
- viability, T/C [6]: 5.41%
- viability, T/C [7]: 8.93%
- viability, T/C [8]: 6.57%
- viability, T/C [9]: 6.54%
- viability, T/C [10]: 7.97%
- viability, T/C [11]: 9.01%
- viability, T/C [12]: 4.92%
- viability, T/C [13]: 5.04%
- viability, T/C [14]: 3.52%
- viability, T/C [15]: 3.71%
- viability, T/C [16]: 4.22%
- viability, T/C [17]: 6.59%
- viability, T/C [18]: 5.41%
- viability, T/C [19]: 2.55%
- viability, T/C [20]: 2.39%
- viability, T/C [21]: 2.88%
- viability, T/C [22]: 3.55%
- viability, T/C [23]: 4.3%
- viability, T/C [24]: 5.91%
- viability, T/C [25]: 2%
- viability, T/C [26]: 2.27%
- viability, T/C [27]: 3.01%
- viability, T/C [28]: 3.27%
- viability, T/C [29]: 3.34%
- viability, T/C [30]: 6.51%
- viability, T/C [31]: 1.76%
- viability, T/C [32]: 1.46%
- viability, T/C [33]: 1.91%
- viability, T/C [34]: 2%
- viability, T/C [35]: 1.28%
- viability, T/C [36]: 2.73%

Compound: CCN1CCN(Cc2ccc(Nc3ncc(F)c(-c4cc(F)c5nc(C)n(C(C)C)c5c4)n3)nc2)CC1 + C#Cc1c(F)ccc2cc(O)cc(-c3ncc4c(N5CC6CCC(C5)N6)nc(OCC56CCCN5CC(F)C6)nc4c3F)c12
- IC50 (second compound 0.0316 µM): < 3.16 nM
- IC50 (second compound 0.1 µM): < 3.16 nM
- IC50 (second compound 0.316 µM): < 3.16 nM
- IC50 (second compound 1 µM): < 3.16 nM
- IC50 (second compound 3.16 µM): < 3.16 nM
- IC50 (second compound 10 µM): < 3.16 nM
- viability, T/C (second compound 0.0316 µM, first compound 0.00316 µM): 21%
- viability, T/C (second compound 0.0316 µM, first compound 0.01 µM): 18.9%
- viability, T/C [1]: 11.8%
- viability, T/C [2]: 11.6%
- viability, T/C [3]: 5.8%
- viability, T/C [4]: 4.39%
- viability, T/C (second compound 0.1 µM, first compound 0.00316 µM): 9.77%
- viability, T/C (second compound 0.1 µM, first compound 0.01 µM): 9.8%
- viability, T/C [7]: 8.49%
- viability, T/C [8]: 4.76%
- viability, T/C [9]: 3.64%
- viability, T/C [10]: 2.94%
- viability, T/C (second compound 0.316 µM, first compound 0.00316 µM): 3.83%
- viability, T/C (second compound 0.316 µM, first compound 0.01 µM): 3.75%
- viability, T/C [13]: 3.3%
- viability, T/C [14]: 2.21%
- viability, T/C [15]: 2.67%
- viability, T/C [16]: 2.17%
- viability, T/C (second compound 1 µM, first compound 0.00316 µM): 2.87%
- viability, T/C (second compound 1 µM, first compound 0.01 µM): 2.26%
- viability, T/C [19]: 2.11%
- viability, T/C [20]: 1.55%
- viability, T/C [21]: 2.1%
- viability, T/C [22]: 2.53%
- viability, T/C (second compound 3.16 µM, first compound 0.00316 µM): 1.72%
- viability, T/C (second compound 3.16 µM, first compound 0.01 µM): 1.78%
- viability, T/C [25]: 1.26%
- viability, T/C [26]: 1.41%
- viability, T/C [27]: 1.98%
- viability, T/C [28]: 1.76%
- viability, T/C (second compound 10 µM, first compound 0.00316 µM): 1.13%
- viability, T/C (second compound 10 µM, first compound 0.01 µM): 1.55%
- viability, T/C [31]: 0.87%
- viability, T/C [32]: 0.72%
- viability, T/C [33]: 0.67%
- viability, T/C [34]: 0.32%

Compound: C[C@@H](NC(=O)c1ncnc(N)c1Cl)c1ncc(C(=O)Nc2cc(C(F)(F)F)c(Cl)cn2)s1 + C#Cc1c(F)ccc2cc(O)cc(-c3ncc4c(N5CC6CCC(C5)N6)nc(OCC56CCCN5CC(F)C6)nc4c3F)c12
- IC50 (second compound 0.0316 µM): < 31.6 nM
- IC50 (second compound 0.1 µM): < 31.6 nM
- IC50 (second compound 0.316 µM): < 31.6 nM
- IC50 (second compound 1 µM): < 31.6 nM
- IC50 (second compound 3.16 µM): < 31.6 nM
- IC50 (second compound 10 µM): < 31.6 nM
- viability, T/C [1]: 30.5%
- viability, T/C [2]: 27.9%
- viability, T/C [3]: 30%
- viability, T/C [4]: 31.1%
- viability, T/C [5]: 30.3%
- viability, T/C [6]: 27.2%
- viability, T/C [7]: 14.6%
- viability, T/C [8]: 16.2%
- viability, T/C [9]: 14.1%
- viability, T/C [10]: 19.3%
- viability, T/C [11]: 16.2%
- viability, T/C [12]: 14.4%
- viability, T/C [13]: 7.93%
- viability, T/C [14]: 8.44%
- viability, T/C [15]: 10.6%
- viability, T/C [16]: 9.52%
- viability, T/C [17]: 11.1%
- viability, T/C [18]: 10.5%
- viability, T/C [19]: 4.26%
- viability, T/C [20]: 5.19%
- viability, T/C [21]: 5.9%
- viability, T/C [22]: 8.08%
- viability, T/C [23]: 8.4%
- viability, T/C [24]: 6.52%
- viability, T/C [25]: 3.23%
- viability, T/C [26]: 2.84%
- viability, T/C [27]: 2.97%
- viability, T/C [28]: 3.77%
- viability, T/C [29]: 4.25%
- viability, T/C [30]: 4.87%
- viability, T/C [31]: 2.04%
- viability, T/C [32]: 1.21%
- viability, T/C [33]: 1.76%
- viability, T/C [34]: 2.5%
- viability, T/C [35]: 3.8%
- viability, T/C [36]: 1.16%
